Measured values: patent EP4644375A1, “SUBSTITUTED HYDROQUINOLINES FOR THE TREATMENT OF GLIOBLASTOMA MULTIFORME” (Molius Saglik Teknolojileri Anonim Sirketi, priority 2024, dated 2025)

Tests used:
[1] = tested on: U138-MG human glioma cell; experiment: Cell proliferation analysis (MTT); assay type: cell-based; conditions: MTT; for activity at 10 µM / inhibition at 10 µM: Homo sapiens, 48 h
Procedure: (§1) U87-MG and U138-MG human glioma cell, were incubated with 10% fetal bovine serum (FBS) (Gibco, 10500-064), 1% L-glutamine (Gibco, 25030-024), in a humidified incubator with 5% CO2 at 37 °C. The cells were contained in DMEM High Glucose (Gibco, 41966-029) supplemented with 1% penicillin-streptomycin (P/S) (Gibco 15140-122) solution. The cytotoxic effects of the target compounds on U87-MG and U138-MG cell lines were assessed using the MTT (Thiazolyl Blue Tetrazolium Bromide) method. 7×10^3 cells were seeded into a 96-well plate in 100 µl DMEM High Glucose 10% FBS and 1% P/S. 24 hours after cell incubation, each target compound was added at a dose of 10 µM and the drug treatment was carried out for two days. After the incubation period, 10 µL of MTT solution was added to each well (5 mg/ml in PBS). After 2 hours, MTT solutions were removed from the wells. Then, 100 µl DMSO was added, and mixed to dissolve the formazan crystals. Cell proliferation was analysed by measuring the absorbance of dissolved formazan at a wavelength of 570 nm.
(§2) IC50 values were determined using the same method as above wherein the cells were treated with the target compounds at different doses.

U87-MG human glioma cell = experiment: Cell proliferation analysis (MTT); assay type: cell-based; conditions: MTT; for activity at 10 µM / inhibition at 10 µM: Homo sapiens, U-87 MG, 48 h
Procedure: as §1, §2

| SMILES | activity at 10 µM ([1]; 10 µM, two days) [%] | inhibition at 10 µM ([1]; 10 µM, two days) [%] | activity at 10 µM (U87-MG human glioma cell; 10 µM, two days) [%] | inhibition at 10 µM (U87-MG human glioma cell; 10 µM, two days) [%] | Inhibition (%) ([1]; reference drugs) | Proliferation (%) ([1]; reference drugs) | Inhibition (%) (U87-MG human glioma cell; reference drugs) | Proliferation (%) (U87-MG human glioma cell; reference drugs) | Cell Proliferation (%) ([1]; 10 µM, two days) | Cell Proliferation (%) (U87-MG human glioma cell; 10 µM, two days) |
| --- | --- | --- | --- | --- | --- | --- | --- | --- | --- | --- |
| CC(=O)c1ccc(NC(=O)COc2ccc3c(c2)CCC(=O)N3)cc1 [TR-G064, N-(4-acetylphenyl)-2-((2-oxo-1,2,3,4-tetrahydroquinolin-6-yl)oxy)acetamide] | 78 | 22 | 70 | 30 |  |  |  |  |  |  |
| O=C1CCc2cc(OCCCCc3nnnn3C3CCCCC3)ccc2N1 [Cilostazol, reference compound] |  |  |  |  | 12 | 88 | 22 | 78 |  |  |
| CCOC(=O)Cn1cc(COc2ccc3c(c2)CCC(=O)N3)nn1 [TR-G033, Ethyl 2-(4-(((2-oxo-1,2,3,4-tetrahydroquinolin-6-yl)oxy)methyl)-1H-1,2,3-triazol-1-yl)acetate] | 71 | 29 | 82 | 19 |  |  |  |  |  |  |
| O=C(COc1ccc2c(c1)CCC(=O)N2)N/N=C/c1ccco1 [TR-G025, (E)-N'-(furan-2-ylmethylene)-2-((2-oxo-1,2,3,4-tetrahydroquinolin-6-yl)oxy)acetohydrazide] | 90 | 10 | 75 | 25 |  |  |  |  |  |  |
| O=C(COc1ccc2c(c1)CCC(=O)N2)Nc1ccc(N2CCOCC2)cc1 [TR-G120, N-(4-morpholinophenyl)-2-((2-oxo-1,2,3,4-tetrahydroquinolin-6-yl)oxy)acetamide] | 67 | 34 | 68 | 33 |  |  |  |  |  |  |
| O=C(COc1ccc2c(c1)CCC(=O)N2)Nc1ccc2ncccc2c1 [TR-G089, 2-((2-oxo-1,23,4-tetrahydroquinolin-6-yl)oxy)-N-(quinolin-6-yl)acetamide] | 67 | 33 | 67 | 33 |  |  |  |  |  |  |
| O=C(COc1ccc2c(c1)CCC(=O)N2)N/N=C/c1ccc([N+](=O)[O-])cc1 [TR-G055, (E)-N'-(4-nitrobenzylidene)-2-((2-oxo-1,2,3,4-tetrahydroquinolin-6-yl)oxy)acetohydrazide] | 92 | 8 | 85 | 15 |  |  |  |  |  |  |
| CCCOc1ccc2c(c1)CCC(=O)N2 [TR-G068, 6-propoxy-3,4-dihydroquinolin-2(1H)-one] | 82 | 18 | 59 | 42 |  |  |  |  |  |  |
| C=CCOc1ccc2c(c1)CCC(=O)N2CC=C [TR-G014A, 1-allyl-6-(allyloxy)-3,4-dihydroquinolin-2(1H)-one] | 68 | 32 | 82 | 19 |  |  |  |  |  |  |
| C=CCCCOc1ccc2c(c1)CCC(=O)N2 [TR-G144, 6-(pent-4-en-i-yloxy)-3,4-dihydroquinolin-2(1H)-one] | 70 | 30 | 61 | 39 |  |  |  |  |  |  |
| CC(C)C/C=N/NC(=O)COc1ccc2c(c1)CCC(=O)N2 [TR-G003, (E)-N'-(3-methylbutylidene)-2-((2-oxo-1,2,3,4-tetrahydroquinolin-6-yl)oxy)acetohydrazide] | 84 | 16 | 79 | 21 |  |  |  |  |  |  |
| O=C1CCc2cc(OCc3cc(-c4c(F)cccc4Cl)no3)ccc2N1 [TR-G116, 6-((3-(2-chloro-6-fluorophenyl)isoxazol-5-yl)methoxy)-3,4-dihydroquinolin-2(1H)-one] |  | 41 |  | 7 |  |  |  |  | 59 | 93 |
| O=C1CCc2cc(OCCCCc3nnnn3C3CCCCC3)ccc2N1Cc1ccc(F)cc1 [TR-G112, 6-(4-(1-cyclohexyl-1H-tetrazol-5-yl)butoxy)-1-(4-fluorobenzyl)-3,4-dihydroquinolin-2(1H)-one] | 43 | 58 | 60 | 41 |  |  |  |  |  |  |
| O=C1CCc2cc(OCCBr)ccc2N1 [TR-G017, 6-(2-bromoethoxy)-3,4-dihydroquinolin-2(1H)-one] | 82 | 18 | 94 | 6 |  |  |  |  |  |  |
| O=C1CCc2cc(OCc3cn(CCCN4C(=O)c5ccccc5C4=O)nn3)ccc2N1 [TR-G117, 2-(3-(4-(((2-oxo-1,2,3,4-tetrahydroquinolin-6-yl)oxy)methyl)-1H-1,2,3-triazol-1-yl)propyl)isoindoline-1,3-dione] | 106 | -6 | 96 | 4 |  |  |  |  |  |  |
